# Reference: US12486253B2, “Therapeutics for the degradation of mutant BRAF” (C4 THERAPEUTICS, INC., priority 2021, dated 2025)
# Values joined by “and” are separate entries in the source; they are usually repeats but may differ in a detail not shown here. Equal entries are not always repeated. Where two headings read alike, the source gives them in different places.
# Biological target: BRAF V600E (Homo sapiens, UniProt P15056, V600E)
# Assay: HiBiT cellular BRAF^V600E degradation assay
# Assay type: cell-based
# Details: for DC50: concentration at which 50% of total cellular BRAF^V600E is degraded; for Emax: read-out: HiBit 24 h Emax
# [1] = A375.10 cells, 24 h, residual protein remaining in the cell
# Chain of BRAF V600E (P15056 whole entry V600E): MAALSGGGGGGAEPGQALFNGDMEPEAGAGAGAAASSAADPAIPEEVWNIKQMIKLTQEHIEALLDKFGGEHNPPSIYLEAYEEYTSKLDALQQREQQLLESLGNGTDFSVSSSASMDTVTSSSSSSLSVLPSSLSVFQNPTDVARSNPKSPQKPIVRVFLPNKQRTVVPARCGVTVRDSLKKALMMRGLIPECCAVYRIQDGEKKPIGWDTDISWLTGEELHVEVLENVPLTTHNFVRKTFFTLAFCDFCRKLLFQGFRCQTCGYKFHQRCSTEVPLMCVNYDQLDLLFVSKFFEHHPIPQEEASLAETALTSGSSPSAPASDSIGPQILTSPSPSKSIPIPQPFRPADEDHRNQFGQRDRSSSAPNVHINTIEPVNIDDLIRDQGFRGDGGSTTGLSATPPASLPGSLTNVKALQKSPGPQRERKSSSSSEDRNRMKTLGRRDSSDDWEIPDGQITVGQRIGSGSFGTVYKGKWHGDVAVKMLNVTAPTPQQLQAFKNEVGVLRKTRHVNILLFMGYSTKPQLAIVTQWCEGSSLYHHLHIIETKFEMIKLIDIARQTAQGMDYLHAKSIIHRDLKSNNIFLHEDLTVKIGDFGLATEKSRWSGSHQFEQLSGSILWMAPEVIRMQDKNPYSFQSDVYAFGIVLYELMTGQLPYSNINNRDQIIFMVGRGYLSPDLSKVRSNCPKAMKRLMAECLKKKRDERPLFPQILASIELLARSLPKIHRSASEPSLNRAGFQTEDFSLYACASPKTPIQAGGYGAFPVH
Compound,"DC50 (A375.10 cells, 24 h)",Emax [1],HiBit 24 h Emax [1],Emax
"CCN(C)S(=O)(=O)Nc1ccc(F)c(Oc2ccc3ncn([C@@H]4COC5(CCN(C(=O)CN6CCC(c7ccc(NC8CCC(=O)NC8=O)cc7F)CC6)CC5)C4)c(=O)c3c2)c1C#N (single isomer, unassigned) [Example 33]",32.6 nM,8.77%,,
"CCN(C)S(=O)(=O)Nc1ccc(F)c(Oc2ccc3ncn([C@H]4COC5(CCN(C(=O)CN6CCC(c7ccc(NC8CCC(=O)NC8=O)cc7F)CC6)CC5)C4)c(=O)c3c2)c1C#N (single isomer, unassigned) [Example 34]",29.9 nM,10.8%,,
"CCN(C)S(=O)(=O)Nc1ccc(F)c(Oc2ccc3ncn([C@H]4CCC5(CCN(C(=O)CN6CCC(c7ccc(NC8CCC(=O)NC8=O)cc7F)CC6)CC5)C4)c(=O)c3c2)c1C#N (single isomer, unassigned) [Example 40]",8.13 nM,7.08%,,
"CCN(C)S(=O)(=O)Nc1ccc(F)c(Oc2ccc3ncn([C@@H]4CCC5(CCN(C(=O)CN6CCC(c7ccc(NC8CCC(=O)NC8=O)cc7F)CC6)CC5)C4)c(=O)c3c2)c1C#N (single isomer, unassigned) [Example 41]",16.1 nM,9.27%,,
"CCN(C)S(=O)(=O)Nc1ccc(F)c(Oc2ccc3ncn([C@H]4COC5(CCN(C(=O)CN6CCC(c7ccc(NC8CCC(=O)NC8=O)cc7F)CC6)CC5)C4)c(=O)c3c2Br)c1C#N (single isomer, unassigned) [Example 73]",30.7 nM,12%,,
"CCN(C)S(=O)(=O)Nc1ccc(F)c(Oc2ccc3ncn([C@H]4COC5(CCN(C(=O)CN6CCC(c7ccc(NC8CCC(=O)NC8=O)cc7F)CC6)CC5)C4)c(=O)c3c2Cl)c1C#N (single isomer, unassigned) [Example 77]",31.8 nM,9.51%,,
"CCN(C)S(=O)(=O)Nc1ccc(F)c(Oc2ccc3ncn([C@@H]4COC5(CCN(C(=O)CN6CCC(c7ccc(NC8CCC(=O)NC8=O)cc7F)CC6)CC5)C4)c(=O)c3c2Cl)c1C#N (single isomer, unassigned) [Example 78]",49.7 nM,9.7%,,
"CCN(C)S(=O)(=O)Nc1ccc(F)c(Oc2ccc3ncn([C@H]4CCC5(CCN(C(=O)CN6CCC(c7ccc(NC8CCC(=O)NC8=O)cc7F)CC6)CC5)C4)c(=O)c3c2Cl)c1C#N (single isomer, unassigned) [Example 79]",20.1 nM,12.9%,,
"CCN(C)S(=O)(=O)Nc1ccc(F)c(Oc2ccc3ncn([C@@H]4CCC5(CCN(C(=O)CN6CCC(c7ccc(NC8CCC(=O)NC8=O)cc7F)CC6)CC5)C4)c(=O)c3c2Cl)c1C#N (single isomer, unassigned) [Example 80]",30.5 nM,13.8%,,
"CCN(C)S(=O)(=O)Nc1ccc(F)c(Nc2ccc3ncn([C@H]4COC5(CCN(C(=O)CN6CCC(c7ccc(NC8CCC(=O)NC8=O)cc7F)CC6)CC5)C4)c(=O)c3c2)c1C#N (single isomer, unassigned) [Example 82]",20.7 nM,6.45%,,
"CCN(C)S(=O)(=O)Nc1ccc(F)c(Oc2ccc3ncn([C@H]4COC5(CCN(C6CCC(c7ccc(NC8CCC(=O)NC8=O)cc7F)CC6)CC5)C4)c(=O)c3c2)c1C#N (single isomer, unassigned) [Example 83]",16.3 nM,,27.77%,
"CCN(C)S(=O)(=O)Nc1ccc(F)c(Oc2ccc3ncn([C@H]4COC5(CCN(C6CCC(c7ccc(NC8CCC(=O)NC8=O)cc7F)CC6)CC5)C4)c(=O)c3c2)c1C#N (single isomer, unassigned) [Example 131]",,,8.5% and 8.05%,
"CCN(C)S(=O)(=O)Nc1ccc(F)c(Oc2ccc3ncn(C4COC5(CCN(C(=O)CN6CCC(c7ccc8c(C9CCC(=O)NC9=O)nn(C)c8c7)CC6)CC5)C4)c(=O)c3c2)c1C#N (single isomer, unassigned) [Example 150]",12.4 nM,11.5%,,
"CCN(C)S(=O)(=O)Nc1ccc(F)c(Oc2ccc3ncn([C@H]4COC5(CCN(C(=O)C[C@H]6CC[C@H](c7ccc8c(C9CCC(=O)NC9=O)nn(C)c8c7)CC6)CC5)C4)c(=O)c3c2)c1C#N (single isomer, unassigned) [Example 169]",11.9 nM,31.5%,,
"CCN(C)S(=O)(=O)Nc1ccc(F)c(Oc2ccc3ncn([C@H]4COC5(CCN(C(=O)C[C@H]6CC[C@@H](c7ccc8c(C9CCC(=O)NC9=O)nn(C)c8c7)CC6)CC5)C4)c(=O)c3c2)c1C#N (single isomer, unassigned) [Example 170]",30.9 nM,21.2%,,
"CCN(C)S(=O)(=O)Nc1ccc(F)c(Oc2ccc3ncn([C@H]4COC5(CCN(C(=O)CC6(O)CCN(c7cc8c(cc7F)c(N7CCC(=O)NC7=O)nn8C)CC6)CC5)C4)c(=O)c3c2F)c1C#N (single isomer, unassigned) [Example 174]",25.6 nM,21.2%,,
"CCN(C)S(=O)(=O)Nc1ccc(F)c(Nc2ccc3ncn([C@H]4COC5(CCN(C(=O)CC6(O)CCN(c7cc8c(cc7F)c(N7CCC(=O)NC7=O)nn8C)CC6)CC5)C4)c(=O)c3c2)c1C#N (single isomer, unassigned) [Example 178]",6.13 nM,19.1%,,
"CCN(C)S(=O)(=O)Nc1ccc(F)c(Oc2ccc3ncn([C@H]4COC5(CCN(C(=O)CC6(O)CCN(c7cc8c(cc7F)c(N7CCC(=O)NC7=O)nn8C)CC6)CC5)C4)c(=O)c3c2OC)c1C#N (single isomer, unassigned) [Example 181]",19.9 nM,19.1%,,
"CCN(C)S(=O)(=O)Nc1ccc(F)c(Nc2ccc3ncn([C@H]4COC5(CCN(C(=O)CC6(O)CCN(c7cc8c(cc7F)c(N7CCC(=O)NC7=O)nn8C)CC6)CC5)C4)c(=O)c3c2F)c1C#N (single isomer, unassigned) [Example 184]",8.55 nM,18%,,
"CCN(C)S(=O)(=O)Nc1ccc(F)c(Nc2ccc3ncn([C@H]4COC5(CCN(C(=O)CC6(O)CCN(c7cc8c(cc7F)c(N7CCC(=O)NC7=O)nn8C)CC6)CC5)C4)c(=O)c3c2Cl)c1C#N (single isomer, unassigned) [Example 185]",5.77 nM,18.5%,,
"CCN(C)S(=O)(=O)Nc1ccc(F)c(Nc2ccc3ncn([C@H]4COC5(CCN(C(=O)CC6CCN(c7cc8c(cc7F)c(N7CCC(=O)NC7=O)nn8C)CC6)CC5)C4)c(=O)c3c2F)c1C#N (single isomer, unassigned) [Example 202]",5.17 nM,23.9%,,
"CCN(C)S(=O)(=O)Nc1ccc(F)c(Oc2ccc3ncn([C@H]4COC5(CCN(C(=O)CN6CC[C@H](c7cc8c(cc7F)c(N7CCC(=O)NC7=O)nn8C)C(F)(F)C6)CC5)C4)c(=O)c3c2)c1C#N (single isomer, unassigned) [Example 203]",37.5 nM,11.3%,,
"CCN(C)S(=O)(=O)Nc1ccc(F)c(Oc2ccc3ncn([C@H]4COC5(CCN(C(=O)CN6CC[C@@H](c7cc8c(cc7F)c(N7CCC(=O)NC7=O)nn8C)C(F)(F)C6)CC5)C4)c(=O)c3c2)c1C#N (single isomer, unassigned) [Example 204]",29.8 nM,10.9%,,
"CCN(C)S(=O)(=O)Nc1ccc(F)c(Oc2ccc3ncc(C4COC5(CCN(C(=O)CC6(O)CCN(c7cc8c(cc7F)c(N7CCC(=O)NC7=O)nn8C)CC6)CC5)C4)nc3c2)c1C#N (single isomer, unassigned) [Example 222]",20 nM,24.4%,,
"CCN(C)S(=O)(=O)Nc1ccc(F)c(Oc2ccc3ncc([C@H]4COC5(CCN(C(=O)CC6(O)CCN(c7cc8c(cc7F)c(N7CCC(=O)NC7=O)nn8C)CC6)CC5)C4)c(OC)c3c2)c1C#N (single isomer, unassigned) [Example 225]",> 5000 nM,65.3%,,
"CCN(C)S(=O)(=O)Nc1ccc(F)c(Oc2ccc3ncc([C@@H]4COC5(CCN(C(=O)CC6(O)CCN(c7cc8c(cc7F)c(N7CCC(=O)NC7=O)nn8C)CC6)CC5)C4)c(OC)c3c2)c1C#N (single isomer, unassigned) [Example 226]",39.4 nM,28.2%,,
"CCN(C)S(=O)(=O)Nc1ccc(F)c(Oc2ccc3ncn(-c4cnc(N5CCN(C(=O)CN6CCC(c7ccc(NC8CCC(=O)NC8=O)cc7F)CC6)CC5)nc4)c(=O)c3c2N)c1C#N (stereo in doubt) [Example 102, 5-amino-6-[2-cyano-3-[[ethyl(methyl)sulfamoyl]amino]-6-fluorophenoxy]-3-[2-[4-[2-[4-[4-[[(3S)-2,6-dioxopiperidin-3-yl]amino]-2-fluorophenyl]piperidin-1-yl]acetyl]piperazin-1-yl]pyrimidin-5-yl]-4-oxoquinazoline]",15 nM,,9.75%,
"CCN(C)S(=O)(=O)Nc1ccc(F)c(Oc2ccc3ncn(CCC4CCN(C(=O)CN5CCC(c6ccc(NC7CCC(=O)NC7=O)cc6F)CC5)CC4)c(=O)c3c2)c1C#N (centres unmarked) [Example 1, 6-[2-cyano-3-[[ethyl(methyl)sulfamoyl]amino]-6-fluorophenoxy]-3-[2-[1-[2-[4-[4-[(2,6-dioxopiperidin-3-yl)amino]-2-fluorophenyl]piperidin-1-yl]acetyl]piperidin-4-yl]ethyl]-4-oxoquinazoline]",46.9 nM,13.9%,,
"CCN(C)S(=O)(=O)Nc1ccc(F)c(Oc2ccc3ncn(CCC4CCN(C(=O)CN5CCC(c6ccc(C7CCC(=O)NC7=O)cc6F)CC5)CC4)c(=O)c3c2)c1C#N (centres unmarked) [Example 2, 6-[2-cyano-3-[[ethyl(methyl)sulfamoyl]amino]-6-fluorophenoxy]-3-[2-[1-[2-[4-[4-(2,6-dioxopiperidin-3-yl)-2-fluorophenyl]piperidin-1-yl]acetyl]piperidin-4-yl]ethyl]-4-oxoquinazoline]",48.6 nM,13.5%,,
"CCN(C)S(=O)(=O)Nc1ccc(F)c(Oc2ccc3ncn(CCC4CCN(C(=O)CN5CCC(c6ccc(NC7CCC(=O)NC7=O)c(F)c6)CC5)CC4)c(=O)c3c2)c1C#N (centres unmarked) [Example 3, 6-[2-cyano-3-[[ethyl(methyl)sulfamoyl]amino]-6-fluorophenoxy]-3-[2-[1-[2-[4-[4-[(2,6-dioxopiperidin-3-yl)amino]-3-fluorophenyl]piperidin-1-yl]acetyl]piperidin-4-yl]ethyl]-4-oxoquinazoline]",35.9 nM,,,14.7%
